“Also recorded” adds a separate entry of the source. Square brackets hold non-standard residues; d marks the D form. Primed or numbered codes have the meaning given here. PEG7′ = (PEG)7 moiety; Ava = NCCCCC(=O)O; βAla = NCCC(=O)O
Assays:
[1] = system: 293T cells; test: Cellular delivery of pGL4 plasmid DNA expressing Luciferase, luciferase expression at 72 hrs; type: cell-based; conditions: for reduction of efficiency / luciferase expression in the presence of serum: complexes incubated 3 hrs in 25% serum prior transfection; for reduction of efficiency / luciferase expression in the presence of serum / reduction of efficiency / luciferase expression in heparan sulfate: pGL4 plasmid; for reduction of efficiency / luciferase expression in heparan sulfate: complexes incubated 3 hrs with heparan sulfate prior transfection
Protocol: FIGS. 2A-2C show luciferase expression in 293T cells treated with ADGN-peptide/pGL4 plasmid DNA complexes. 293T cells cultured in 48 well plates were transfected with ADGN-peptide nanoparticles. ADGN-100, ADGN-106, ADGN-100RI, ADGN-106RI, ADGN-100 Stearyl, ADGN-Hydro1, ADGN-Hydro2, ADGN-Hydro3, ADGN-Hydro4, ADGN-Hydro5, and ADGN-Hydro6 containing 0.17 μg pGL4 plasmid DNA were formed in sterile water, diluted in sterile water containing 5% Sucrose. ADGN-peptide nanoparticles were evaluated prior (FIG. 2A) and after filtration with 0.45 μm PES filters (FIG. 2B). FIG. 2C impact of peGylated ADGN-100 on the transfection efficiency. pGL4 luc plasmid (0.15 μg) were associated to ADGN-100 solution containing 5 to 50% of ADGN-100-PEG or to ADGN-100PEG. ADGN/pGL4 plasmid DNA complexes were incubated for 3 hrs in the presence of either 25% serum or heparan sulfate prior transfection. Luciferase expression was monitored 72 hours post transfection and results were reported as RLU (luminescence):mg of protein.
Complex formation with plasmid DNA. The following protocols were used for the transfection of 2-5 106 Cells or Cells at confluency of about 70-80% cultured in 24 well plates. ADGN peptide/plasmid DNA pGL4 particles were prepared at a 20:1 molar ratio of ADGN-Peptide/pGL4. using (0.2 μg). PGL4 plasmid (0.15 μg) was diluted in 20 μl of sterile water (GIBCO) at room temperature. 10 μl Final Peptide Solution was added to obtain a total volume of 20 μl. The volume was adjusted to 50 μl with sterile water and was mixed gently with vortex 1 min low speed and incubated 30 min at room temperature. Then the volume was made up to 100 μl by adding sterile water containing 5% sucrose, and the solution was mixed gently with vortex 1 min low speed and incubate 5 min at 37° C. and then was proceeded to cell transfection.
(§1) Transfection protocol. Protocol is reported for 24 well plate format. Cells were cultured in Dulbecco's Modified Eagle's Medium (DMEM), supplemented with 2 mM glutamine, 1% antibiotics (streptomycin 10,000 μg/mL, penicillin, 10,000 IU/mL) and 10% (w/v) foetal calf serum (FCS), at 37° C. in a humidified atmosphere containing 5% CO2. 24 well plates seeded with 150,000 cells the day prior to transfection were grown to 50-60% confluence and set up to be at about 70% confluences at the time of transfection. Before transfection, cells were washed twice with DMEM. Cells were then overlaid with 0.1 ml of ADGN-peptide/cargo complex solution containing 0.25 μg mRNA, 0.15 μg plasmid DNA or 10-25 nM siRNA, mixed gently, and incubated for 10 min at 37° C. 0.2 mL of fresh DMEM, were added and cells were incubated for 20 min at 37° C. 1 mL of complete DMEM containing 15% FCS were then added in order to reach a final FCS concentration of 10%, without removing the overlay of ADGN-peptide/cargo complexes. Cells were returned to the incubator (37° C., 5% CO2) and 72 hrs post transfection.
ADGN-peptides were evaluated for cellular delivery of pGL4 plasmid DNA expressing Luciferase in 293T cells. Luc pGL4 plasmid (0.15 μg) in sterile water (GIBCO) were mixed with ADGN-100, ADGN-100RI, ADGN-106, ADGN-106RI, ADGN-100 Stearyl, ADGN-100Hydro1, ADGN-100Hydro2, ADGN-100Hydro4, ADGN-100Hydro3, ADGN-100Hydro5 and ADGN-100Hydro6. ADGN-peptide/mRNA complexes were filtered with 0.45 μm PES filter. In order to evaluate the stability of the ADGN/pGL4 plasmid complexes in high serum and cell culture conditions, the complexes were incubated for 3 hrs in the presence of either 25% serum or heparan sulfate prior transfection, then 293T cells were transfected and Luciferase expression was monitored at 72 hrs.

[2] = system: mice or rat models; test: Summary of cargo delivery to targeted organ (Table 1); type: in vivo; conditions: cargoes and route (IV, IM, SQ, NB) per peptide as listed in Table 1
Text: Table 1 lists a summary of cell-penetrating peptides that have been proven successful in delivering various cargo molecules to on or more targeted organ (e.g., by intravenous (IV), intramuscular (IM), or subcutaneous (SQ) administration, or intratraccheal instillation or nebulization (NB)) in mice or rat models.

[3] = system: A375/Luc cells; test: Cellular delivery of siRNA targeting Luciferase, luciferase silencing at 48 hrs; type: cell-based; conditions: 50% or 100% ADGN-100 PEG
Protocol: FIGS. 3A-3C show luciferase expression in A375/Luc cells treated with ADGN-peptide/siRNA complexes. A375/Luc cells cultured in 48 well plates were transfected with ADGN-peptide nanoparticles. ADGN-100, ADGN-106, ADGN-100RI, ADGN-106RI, ADGN-100 Stearyl, ADGN-Hydro1, ADGN-Hydro2, ADGN-Hydro3, ADGN-Hydro4, ADGN-Hydro5, ADGN-Hydro6 and ADGN-peptide/ADGN-100PEG 10% nanoparticles containing 10 nM or 25 nM siRNA were formed in sterile water, diluted in sterile water containing 5% Sucrose and filtered with 0.45 μm PES filters. FIG. 3C impact of peGylated ADGN-100 on the transfection efficiency. siRNA Luc (10 nM and 25 nM) were associated to ADGN-100 solution containing 5 to 50% of ADGN-100-PEG or to ADGN-100PEG. ADGN/siRNA complexes were incubated for 3 hrs in the presence of 25% serum prior transfection. Luciferase expression was monitored 48 hours post transfection and results were reported as RLU (luminescence):mg of protein.
Complex formation with siRNA. The following protocols were used for the transfection of 2-5 106 Cells or Cells at confluency of about 70-80% cultured in 24 well plates. ADGN peptide/siRNA Luc particles were prepared at a 20:1 molar ratio of ADGN-Peptide/pGL4. using 20 nM siRNA. The siRNA duplex (10 and 25 nM) was diluted in 20 μl of sterile water (GIBCO) at room temperature. 1.5 or 3 μl of a Final Peptide Solution (55 μM) was added to obtain a total volume of 20 μl. The volume was adjusted to 50 μl with sterile water and was mixed gently with vortex 1 min low speed and incubated 30 min at room temperature. Then the volume was made up to 100 μl by adding sterile water containing 5% sucrose, and the solution was mixed gently with vortex 1 min low speed and incubate 5 min at 37° C. and then was proceeded to cell transfection.
as §1
ADGN-peptides were evaluated for cellular delivery of siRNA duplex targeting Luciferase in A375/Luc cells. siRNA targeting luciferase (10 and 25 nM) in sterile water (GIBCO) were mixed with ADGN-100, ADGN-100RI, ADGN-106, ADGN-106RI, ADGN-100 Stearyl, ADGN-100Hydro1, ADGN-100Hydro2, ADGN-100Hydro4, ADGN-100Hydro3, ADGN-100Hydro5 and ADGN-100Hydro6. ADGN-peptide/siRNA complexes were filtered with 0.45 μm PES filter. In order to evaluate the stability of the ADGN/siRNA complexes in high serum conditions, the complexes were incubated for 3 hrs in the presence of 25% serum, then A375/Luc cells were transfected and Luciferase expression was monitored at 48 hrs.

Substance | reduction of efficiency / luciferase expression in the presence of serum [1] | reduction of efficiency / luciferase expression in heparan sulfate [1] | Targeted Organ [2] | reduction of level of Luciferase expression ([1]; 50% or 100% ADGN-100 PEG, pGL4 plasmid 0.15 μg) | reduction of transfection efficiency [3]
Ac-GYVS-Ava-KWRSALWRWRLWRVRSWSR-NH2 (Ac-GYVS[Ava]KWRSALWRWRLWRVRSWSR-NH2; SMILES CC(=O)NCC(=O)N[C@@H](Cc1ccc(O)cc1)C(=O)N[C@H](C(=O)N[C@@H](CO)C(=O)NCCCCC(=O)N[C@@H](CCCCN)C(=O)N[C@@H](Cc1c[nH]c2ccccc12)C(=O)N[C@@H](CCCNC(=N)N)C(=O)N[C@@H](CO)C(=O)N[C@@H](C)C(=O)N[C@@H](CC(C)C)C(=O)N[C@@H](Cc1c[nH]c2ccccc12)C(=O)N[C@@H](CCCNC(=N)N)C(=O)N[C@@H](Cc1c[nH]c2ccccc12)C(=O)N[C@@H](CCCNC(=N)N)C(=O)N[C@@H](CC(C)C)C(=O)N[C@@H](Cc1c[nH]c2ccccc12)C(=O)N[C@@H](CCCNC(=N)N)C(=O)N[C@H](C(=O)N[C@@H](CCCNC(=N)N)C(=O)N[C@@H](CO)C(=O)N[C@@H](Cc1c[nH]c2ccccc12)C(=O)N[C@@H](CO)C(=O)N[C@@H](CCCNC(=N)N)C(N)=O)C(C)C)C(C)C) [ADGN-100 hydro-4] | do not significantly improved transfection | do not significantly improved transfection | Liver/Lung/; also recorded: Kidney/Spleen | – | –
Ac-YIGSR-Ava-KWRSALWRWRLWRVRSWSR-NH2 (Ac-YIGSR[Ava]KWRSALWRWRLWRVRSWSR-NH2; SMILES CC[C@H](C)[C@H](NC(=O)[C@H](Cc1ccc(O)cc1)NC(C)=O)C(=O)NCC(=O)N[C@@H](CO)C(=O)N[C@@H](CCCNC(=N)N)C(=O)NCCCCC(=O)N[C@@H](CCCCN)C(=O)N[C@@H](Cc1c[nH]c2ccccc12)C(=O)N[C@@H](CCCNC(=N)N)C(=O)N[C@@H](CO)C(=O)N[C@@H](C)C(=O)N[C@@H](CC(C)C)C(=O)N[C@@H](Cc1c[nH]c2ccccc12)C(=O)N[C@@H](CCCNC(=N)N)C(=O)N[C@@H](Cc1c[nH]c2ccccc12)C(=O)N[C@@H](CCCNC(=N)N)C(=O)N[C@@H](CC(C)C)C(=O)N[C@@H](Cc1c[nH]c2ccccc12)C(=O)N[C@@H](CCCNC(=N)N)C(=O)N[C@H](C(=O)N[C@@H](CCCNC(=N)N)C(=O)N[C@@H](CO)C(=O)N[C@@H](Cc1c[nH]c2ccccc12)C(=O)N[C@@H](CO)C(=O)N[C@@H](CCCNC(=N)N)C(N)=O)C(C)C) [ADGN-100-Hydro-3] | do not significantly improved transfection | do not significantly improved transfection | Tumor/Lung | – | –
Ac-(PEG)7-βA-KWRSALWRWRLWRVRSWSR-NH2 ({Ac-PEG7′}-[βAla]KWRSALWRWRLWRVRSWSR-NH2) [ADGN-100-PEG7] | – | – | – | 80% | 80%

— patent US12357695B2, “Peptides and nanoparticles for intracellular delivery of molecules” (AADIGEN, LLC, priority 2019, dated 2025)
